Assay results reported in publication PMC3457943, “Inhibition of poly(ADP-ribose) Polymerase Interferes with Trypanosoma cruzi Infection and Proliferation of the Parasite” (PLoS ONE, 2012).
Where two headings read alike, the source gives them in different places.

What was measured:
T. cruzi amastigotes = system: T. cruzi amastigotes; set-up: method as in PMID 6330132; conditions: millimolar concentrations, mainly axenic amastigote cultures; cited from earlier work
TcPARP [1] = molecular target: TcPARP (Trypanosoma cruzi, UniProt Q4PQV7); experiment: Homogeneous fluorometric TcPARP activity assay (remaining NAD+); assay type: biochemical; conditions: 10 nM TcPARP, 500 nM NAD+
Method: (§1) Enzymatic activity was measured using a fluorometric assay, which quantifies the remaining NAD^+ after the enzymatic reaction, [10]. Briefly, TcPARP was incubated with 500 nM NAD^+ in a 96-well U-bottom black propylene plate (Greiner BioOne) in a final volume of 50 µl. The reaction was carried out at 25°C with shaking at 300 rpm using PST-60 HL plus Thermo Shaker (Biosan, Riga, Latvia). The reaction was terminated by the addition of 20 µl of 2 M KOH and 20 µl of 20% acetophenone in ethanol, and plate was incubated at room temperature for 10 minutes. Next, 90 µl of 88% formic acid was added and the plate was incubated at room temperature for 20 minutes. The fluorescence was measured on a Fluoroskan Ascent FL (Thermo Labsystems, Waltham, MA) using excitation at 355 nm and emission at 460 nm. The activity assay was optimized for TcPARP by assaying the effect of pH, DNA concentration, and various additives for the activity of the protein.
(§2) A small in-house library of known PARP inhibitors was screened to evaluate their inhibitory effect against TcPARP. The inhibitor stock solutions were prepared at 10 mM in 100% DMSO and stored at −20°C, except in the case of 3-aminobenzamide, which was prepared at a stock concentration of 1 M in 100% DMSO. The compounds were screened in duplicates at 10 µM and 1 µM concentrations with separate controls for each including only NAD^+ and the compound, but not TcPARP. The protein concentration in the reactions was 10 nM.
(§3) The IC50 value for the first generation PARP inhibitor 3-AB was determined as a reference value. The separate data points were measured in quadruplicates. […] The fluorescence signal was converted to inhibition percentage and fitted using sigmoidal dose-response fitting with variable slope (Graphpad Prism). The curves were extrapolated to 0% and 100% of inhibition by setting their inhibitor concentration 2 log units below or above the first and the last inhibitor concentration, respectively.

hPARP-1 = conditions: cited from earlier work
T. cruzi epimastigotes [2] = system: T. cruzi epimastigotes; set-up: method as in PMID 17936287; conditions: millimolar concentrations; cited from earlier work
T. cruzi epimastigotes [3] = experiment: Epimastigote growth inhibition assay (OD 600 nm); assay type: cell-based, Trypanosoma cruzi
Method: T. cruzi epimastigotes were grown in LIT complete medium for 4 days up to a parasite density of 10^7 parasites/ml. The culture was placed in 96-well sterile plates in 100 µl aliquots and PARP inhibitors were added. Nifurtimox and β-lapachone were used as control compounds. DMSO control was used at 1% v/v concentration. Optical density of the cultures was determined at 600 nm each day for four days to follow parasite growth. Controls for LIT growth medium bearing no parasites were also performed. In all experiments performed, conditions were tested in triplicates. Significance of the results were analysed with one-way ANOVA using GraphPad Prism version 5.03 for Windows (GraphPad Software).

[4] = system: pADPr formation in T. cruzi epimastigotes; experiment: In vivo inhibition of pADPr formation in epimastigotes challenged with hydrogen peroxide (Western blot); assay type: cell-based, Trypanosoma cruzi; conditions: 30 min pre-incubation, 300 µM hydrogen peroxide 10 min
Method: Cell viability was assessed by direct microscopic examination.
Trypanosoma cruzi epimastigotes were grown in LIT complete medium for 4 days up to a parasite density of 10^7 parasites/ml. Parasites were collected by centrifugation at 750×g for 5 minutes and resuspended in PBS-Glucose 2%. T. cruzi epimastigotes were pre-incubated in the presence of inhibitors for 30 minutes and treated with 300 µM hydrogen peroxide for 10 minutes. Cells were harvested by centrifugation at 1500×g, washed with PBS and resuspended in lysis buffer (50 mM Tris–HCl pH 8.0, 1.0 mM EDTA, 10% (v/v) glycerol, 10 mM 2-mercaptoethanol). Protease inhibitors 1 µg/mL trans-epoxysuccinyl-L-leucylamido(4-guanidino) butane (E-64), […], 1 mM phenylmethylsulfonylfluoride (PMSF), and 0.1 mM Na-tosyl-L-lysine chloro-methyl ketone (TLCK) and inhibitor 3-AB (1 mM) were added. Cells were lysed with an Ultrasonic Processor Model W385 Sonicator (Heat Systems-Ultrasonic Inc. Plainview) and the whole extract obtained was used for Western blot. 30 µg of protein were run on 10% SDS–PAGE gel and transferred to Amersham Hybond-ECL nitrocellulose membrane (GE healthcare), according to the manufacturer's instructions. […] The signal was detected with the Western Lightning Plus-ECL (PerkinElmer).

TcPARP [5] = experiment: Homogeneous fluorometric TcPARP activity assay (remaining NAD+); assay type: biochemical, Trypanosoma cruzi; conditions: TcPARP IC50 versus literature hPARP-1 IC50
Method: as §1, §2, §3

[6] = system: pADPr formation in human cells; set-up: method as in earlier work; conditions: cited from earlier work
Vero cells = experiment: Growth of uninfected Vero cells; assay type: cell-based; conditions: presence or absence of Olaparib
[7] = system: Trypanosoma cruzi infection of Vero cells; experiment: Trypanosoma cruzi infection of Vero cells; assay type: cell-based
Method: (§4) Vero cells were cultured in D-MEM medium (Gibco), supplemented with 2 mM L-glutamine, 10% (v/v) FCS, 100 U/ml penicillin and 100 mg/l streptomycin. The wild type (Sigma-Aldrich) and PARP silenced (sh_PARP) pulmonary adenocarcinoma A549 cell lines were provided by Dr. Virág and Dr. Erdélyi, from the University of Debrecen, Hungary. A549 cells were grown in RPMI-1640 medium (Gibco), supplemented with 2 mM L-glutamine, 1 mM Sodium Pyruvate, 10% (v/v) FCS, 100 U/ml penicillin and 100 mg/l streptomycin.
Trypomastigotes were collected by centrifugation of the supernatant of previously infected cultures at 1500×g at room temperature for 7 minutes and incubated for 3 hours at 37°C in order to allow the trypomastigotes to move from the pellet into the supernatant. After this period, the supernatant was collected and trypomastigotes were counted in a Neubauer chamber. […] For this, 50 trypomastigotes/cell were added to the medium of 24 hour-old monolayers and incubated for 24 hours at 37°C, after which they were removed by changing the cell culture medium. Infections were performed in the media above indicated, but supplemented with 3% (v/v) FCS.
The infection was allowed to proceed and growth medium was changed periodically during the first 5 days. […] At the indicated days, cells were fixed and stained by May Grünwald Giemsa technique. Cells were visualized using an Olympus BX41 microscope. Amastigotes and cells were counted using the ImageJ software in at least 7 microscopic fields. […] Alternatively, trypomastigotes in the supernatant of the cell cultures were counted without prior fixation on a Neubauer Chamber at the indicated days. All experiments were performed in triplicates. Significance of the results were analysed with two-way ANOVA using GraphPad Prism version 5.03 for Windows (GraphPad Software).

[8] = system: Trypanosoma cruzi infection of A549 wild type cells; experiment: Trypanosoma cruzi infection of A549 cells; assay type: cell-based; conditions: 25 nM
Method: as §4
Trypomastigotes were collected by centrifugation of the supernatant of previously infected cultures at 1500×g at room temperature for 7 minutes and incubated for 3 hours at 37°C in order to allow the trypomastigotes to move from the pellet into the supernatant. After this period, the supernatant was collected and trypomastigotes were counted in a Neubauer chamber. […]
The infection was allowed to proceed and growth medium was changed periodically during the first 5 days. […] Amastigotes and cells were counted using the ImageJ software in at least 7 microscopic fields. […] Alternatively, trypomastigotes in the supernatant of the cell cultures were counted without prior fixation on a Neubauer Chamber at the indicated days. […] Significance of the results were analysed with two-way ANOVA using GraphPad Prism version 5.03 for Windows (GraphPad Software).

[9] = read-out: TcPARP pIC50±SE (converted)

Chain of TcPARP (Trypanosoma cruzi, UniProt Q4PQV7) (Q4PQV7 1-592): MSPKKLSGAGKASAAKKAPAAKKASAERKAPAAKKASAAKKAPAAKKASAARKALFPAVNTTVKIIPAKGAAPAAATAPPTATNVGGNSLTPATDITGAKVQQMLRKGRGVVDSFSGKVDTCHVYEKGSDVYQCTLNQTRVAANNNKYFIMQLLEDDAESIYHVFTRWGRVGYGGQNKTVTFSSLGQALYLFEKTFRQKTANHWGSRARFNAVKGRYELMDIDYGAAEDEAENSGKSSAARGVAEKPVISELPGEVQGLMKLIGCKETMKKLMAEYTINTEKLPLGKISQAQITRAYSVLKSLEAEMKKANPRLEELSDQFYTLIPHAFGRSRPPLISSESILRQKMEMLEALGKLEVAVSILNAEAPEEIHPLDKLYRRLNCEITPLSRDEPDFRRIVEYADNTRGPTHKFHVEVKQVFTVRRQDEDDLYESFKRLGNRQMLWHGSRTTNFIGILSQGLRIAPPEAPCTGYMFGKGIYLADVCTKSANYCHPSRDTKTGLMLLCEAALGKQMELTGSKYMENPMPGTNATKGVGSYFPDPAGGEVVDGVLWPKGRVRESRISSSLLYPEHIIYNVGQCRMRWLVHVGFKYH

| IC50 (TcPARP [1]; read-out: TcPARP IC50) [µM] | IC50 (TcPARP [1]; [9]) [µM] | Compound | IC50 (hPARP-1) [µM] | also measured |
| --- | --- | --- | --- | --- |
| – | – | COc1cccc(C(N)=O)c1 [3-methoxybenzamide] | – | inhibition of differentiation of amastigotes to trypomastigotes (T. cruzi amastigotes): able to inhibit differentiation of amastigotes to trypomastigotes |
| 0.18 | – | Cn1cccc1/C=C1\C(=O)NC(=O)c2ccccc21 [BYK204165, (4Z)-4-[(1-methyl-1H-pyrrol-2-yl)methylidene]-1,2,3,4-tetrahydroisoquinoline-1,3-dione] | 0.045 | TcPARP pIC50±SE (TcPARP [1]): 6.74±0,090 |
| 0.17 | 0.174 | NC(=O)c1cccc2ncc(-c3ccc(Cl)cc3)nc12 [CNQ, 3-(4-chlorophenyl)quinoxaline-5-carboxamide] | 0.033 | – |
| 26 | 26.3 | NC(=O)c1cccc(N)c1 [Compound 3-AB, 3-aminobenzamide] | 33 | inhibition of differentiation of amastigotes to trypomastigotes (T. cruzi amastigotes): to a lesser extent; effect on T. cruzi epimastigote growth (T. cruzi epimastigotes [2]): able to reduce T. cruzi epimastigote growth; reduction of parasite growth compared to the control (T. cruzi epimastigotes [3]; 660 µM): approximately 60%; reduction of parasite growth compared to the control (T. cruzi epimastigotes [3]; 6.6 mM): approximately 60% |
| 1.4 | 1.38 | Cc1nc2c(c(=O)[nH]1)CSCC2 [DR2313, 2-methyl-1H,4H,5H,7H,8H-thiopyrano[4,3-d]pyrimidin-4-one] | – | – |
| – | – | Nc1ncnc2c1ncn2[C@@H]1O[C@H](C(=O)N2CCN(CC(=O)Nc3cccc4c3CNC4=O)CC2)[C@@H](O)[C@H]1O [EB-47, 2-(4-{[(2S,3S,4R,5R)-5-(6-amino-9H-purin-9-yl)-3,4-dihydroxyoxolan-2-yl]carbonyl}piperazin-1-yl)-N-(1-oxo-2,3-dihydro-1H-isoindol-4-yl)acetamide] | 0.045 | selectivity for TcPARP over hPARP-1 (TcPARP [5]): approximately five-fold; inhibition of pADPr formation in human cells [6]: inhibit pADPr formation; inhibition of pADPr formation in parasites ([4]; 43 nM): did not inhibit TcPARP at all |
| – | – | CC1CS(=O)(=O)CCN1/N=C/c1ccc([N+](=O)[O-])o1 (centres unmarked) [Nifurtimox] | – | effect on epimastigote growth (T. cruzi epimastigotes [3]; 2.5 µM): small effect |
| 0.23 | 0.224 | CN(C)CC(=O)Nc1ccc2[nH]c(=O)c3ccccc3c2c1 [PJ-34, 2-(dimethylamino)-N-(6-oxo-5,6-dihydrophenanthridin-2-yl)acetamide] | – | – |
| 1.6 | 1.62 | O=c1[nH]c2ccccc2c2ccccc12 [Phenanthridinone, 5,6-dihydrophenanthridin-6-one] | 0.56 | – |
| 1.3 | 1.26 | Oc1nc(C2CC2)nc2c1CSCC2 [RF03876, 2-cyclopropyl-5H,7H,8H-thiopyrano[4,3-d]pyrimidin-4-ol] | – | – |
| 0.025 | 0.0257 | CNCc1ccc(-c2[nH]c3cc(F)cc4c3c2CCNC4=O)cc1 [Rucaparib, 6-fluoro-2-{4-[(methylamino)methyl]phenyl}-3,10-diazatricyclo[6.4.1.0^{4,13}]trideca-1,4(13),5,7-tetraen-9-one] | – | – |
| – | – | CC1(C)CCC2=C(O1)c1ccccc1C(=O)C2=O [β-lapachone] | – | effect on epimastigote growth (T. cruzi epimastigotes [3]; 2.5 µM): small effect |

| Compound | IC50 (TcPARP [1]; read-out: TcPARP IC50) [µM] | IC50 (TcPARP [1]; [9]) [µM] | IC50 (hPARP-1) [µM] | also measured |
| --- | --- | --- | --- | --- |
| Nc1ccc2c3c(cccc13)C(=O)NC2=O [Compound 4-ANI, 8-amino-3-azatricyclo[7.3.1.0^{5,13}]trideca-1(12),5,7,9(13),10-pentaene-2,4-dione] | 0.043 | 0.0427 | 0.022 | inhibition of pADPr formation in parasites ([4]; 215 nM): did not show complete inhibition |
| O=C(c1cc(Cc2n[nH]c(=O)c3ccccc23)ccc1F)N1CCN(C(=O)C2CC2)CC1 [Olaparib, 4-({3-[(4-cyclopropanecarbonylpiperazin-1-yl)carbonyl]-4-fluorophenyl}methyl)-1,2-dihydrophthalazin-1-one] | 0.0034 | 0.00339 | – | growth of uninfected Vero cells (Vero cells): did not alter the growth of the cell line; number of trypomastigotes in the supernatant ([7]; 25 nM): no significant difference; number of amastigotes per cell ([7]; 25 nM in growth medium): decrease in the number of amastigotes per cell; % of Infected Cells, Day 2 ([7]; Olaparib 25 nM, mean±SD): 38.67±7.68%; % of Infected Cells, Day 4 ([7]; Olaparib 25 nM, mean±SD): 13.54±3.40 %; % of Infected Cells, Day 6 ([7]; Olaparib 25 nM, mean±SD): 22.03±2.36 %; decrease in growth of the parasites (T. cruzi epimastigotes [3]; 25 nM): 50%; effect on epimastigote growth (T. cruzi epimastigotes [3]; 25 nM): diminished epimastigote growth significantly; number of amastigotes per cell ([8]; day 6 post-infection): markedly decreased; number of trypomastigotes in the growth medium ([8]; day 9 post-infection): no significant difference |
| C[C@]1(c2nc3c(C(N)=O)cccc3[nH]2)CCCN1 [Veliparib, 2-[(2R)-2-methylpyrrolidin-2-yl]-1H-1,3-benzodiazole-4-carboxamide] | 0.083 | 0.0832 | – | Ki (hPARP-1): 0.005 µM |
